# In paper PMC11436757, “BRCA2 stabilises RAD51 and DMC1 nucleoprotein filaments through a conserved interaction mode” (Nature Communications, 2024):
# “Also recorded” adds a separate entry of the source. No end group written: not given here.
# Legend:
# DMC1 ΔN loop mutant = biological target: T1, DMC1 ΔN loop mutant (Homo sapiens, UniProt Q14565, A148D/A183D/D180S/D182S/G147I/G149R/G153E/H181G/N178G/P152G/V179L/Y151G); test: Microscale thermophoresis (MST), BRCA2 peptide and DMC1 ΔN loop mutant; assay type: binding; conditions: labelled DMC1 ΔN loop mutant 150 nM; pH 8.0
# T1 construct: DMC1 ΔN (83-340) were cloned into pHAT4; made in house
# T1 sequence (Q14565 83-340 G147I/A148D/G149R/Y151G/P152G/G153E/N178G/V179L/D180S/H181G/D182S/A183D limits assumed): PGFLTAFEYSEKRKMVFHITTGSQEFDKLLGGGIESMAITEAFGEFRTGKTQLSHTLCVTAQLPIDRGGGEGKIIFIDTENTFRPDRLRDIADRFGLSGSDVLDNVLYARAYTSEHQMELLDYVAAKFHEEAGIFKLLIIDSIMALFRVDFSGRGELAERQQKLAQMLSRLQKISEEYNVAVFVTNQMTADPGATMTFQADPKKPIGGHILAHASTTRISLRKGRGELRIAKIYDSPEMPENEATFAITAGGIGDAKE
# Experimental: DMC1 ΔN and DMC1 ΔN loop mutant were labelled in 10 mM HEPES pH 8.0, 150 mM NaCl with an amine reactive fluorescent dye (MonolithTM Protein Labelling Kit BLUE-NHS, Nanotemper GmbH). A serial dilution of titrant (peptide) was prepared in 10 mM HEPES pH 8.0, 150 mM NaCl, 0.05 % Tween-20. The concentration of labelled DMC1 ΔN or DMC1 ΔN loop mutant were constant at 150 nM and the concentration of the interacting peptide was titrated in 1:1 dilutions starting from 750 µM. An equal volume (10 µl) of the serial dilution and of the diluted labelled DMC1 were mixed and loaded in glass capillaries (MonolithTM NT.115 MST Premium Coated Capillaries, Nanotemper GmbH). The initial fluorescence and the thermophoretic mobility were measured on a Monolith NT.115 system (NanoTemper Technologies). […]
# As a change in initial fluorescence was detected, SDS denaturation (SD) tests were performed according to the manufacturer’s instructions to determine whether these changes were ligand-induced and whether the data could therefore be used to derive affinity measurements. […] After incubating each for 5 minutes at 95 °C to denature the proteins and subject to brief centrifugation, the samples were loaded onto Premium Coated Capillaries and their initial fluorescence measurements recorded. […] Initial fluorescence readings were used to derive binding affinities.
# DMC1-ssDNA filaments [1] = test: EMSA, stimulation of DMC1-ssDNA filament formation (TAE pH 7.5); assay type: biochemical, human; conditions: TAE pH 7.5
# Source text: (§1) What is the function of the BRCA2 Ex14-DMC1 interaction? We used electrophoretic mobility shift assays (EMSAs) to determine the impact of BRCA2-binding on DMC1 nucleoprotein filaments. We used two different conditions for nucleoprotein filament assembly. Firstly, a TAE (tris, acetate, EDTA; pH 7.5) buffer that was previously used for RAD51-ssDNA filaments, in which DMC1-ssDNA filaments were partially formed at the canonical ratio of three nucleotides to one protomer (Fig. 3a). Secondly, a TEA (triethanolamine; pH 7.5) + KCl buffer based on previous DMC1 studies[36]–[38], in which DMC1-ssDNA filament formation was more complete at the canonical ratio (Fig. 3b). […] This was noticeable using Ex14 in equimolar amounts (11 μM), and became substantial at a 5-fold stoichiometric excess (55 μM) (Fig. 3b). As the KD of the DMC1-Ex14 interaction is approximately 30 μM (Fig. 2a), the requirement for a stoichiometric excess is likely due to binding being favoured at Ex14 concentrations above the KD.
# (§2) To form nucleoprotein filaments, DMC1 and RAD51 was incubated with fluorescent 100-base ssDNA (5’-FAM- […]-3’) at the concentrations indicated in the figures for 30 minutes at 4 °C in reaction buffer. For DMC1, reaction buffer is 25 mM TEA (triethanolamine) pH 7.5, 1 mM ATP, 2 mM MgCl2, 0.1 mg/ml BSA, 2 mM DTT, 200 mM KCl. For RAD51, reaction buffer is 50 mM TEA (triethanolamine), 2 mM ATP, 0.5 mM MgCl2, 2 mM DTT. For assays requiring incomplete nucleoprotein filament assembly, the reaction buffer consisted of 50 mM TAE (tris, acetate, EDTA) pH 7.5, 2 mM ATP, 2 mM MgCl2, 2 mM DTT. In nucleoprotein formation stimulation assays or supershift experiments, BRCA2Ex14 or BRCA2Ex14-AAA were added for a further 30 min at 4 °C. […] Glycerol was added at a final concentration of 3%, and samples were analysed by electrophoresis on a 1% (w/v) (for DMC1) or 0.66% (w/v) (for RAD51) agarose gel in 0.5x TAE pH 8.0 at 20–40 V for ~4 h at 4 °C. DNA was detected by FAM using a Typhoon^TM FLA 9500 (GE Healthcare), with 473 nm laser at excitation wavelength 490 nm and emission wavelength 520 nm, using the LPB filter and a PMT voltage of 500 V. To analyse RAD51 nucleoprotein filaments assembled upon 100-base poly(dT) ssDNA, gels were stained post-run using SYBR^TM Gold Nucleic Acid Gel Stain (Invitrogen) and detected using a Typhoon^TM FLA 9500 (GE Healthcare).
# DMC1-ssDNA filaments [2] = test: EMSA, super-shift of DMC1-ssDNA filaments (TEA pH 7.5 + KCl); assay type: biochemical, human
# Source text: as §1, §2
# [3] = test system: DMC1 V179E-ssDNA filaments; test: EMSA, super-shift of filaments formed using DMC1 V179E; assay type: biochemical, human
# Experimental: as §2
# DMC1 = conditions: ref [21],[27],[32]; cited from earlier work
# Source text: The PhePP-binding site of DMC1 is formed by two loops, corresponding to amino-acids 147-153 and 178-183, respectively. The first loop consists of amino-acids 147-GAGGYPG-153 in DMC1 and 148-IDRGGGE-154 in RAD51 (herein referred to as PhePP-binding loop A; Fig. 1d), and is one of the most divergent regions between DMC1 and RAD51 (Supplementary Fig. 4). The second loop consists of amino-acids 178-NVDHDA-183 in DMC1 and 179-GLSGSD-184 in RAD51 (herein referred to as PhePP-binding loop B; Fig. 1e), in which residues V179 (DMC1) and L180 (RAD51) substantially contribute to the PhePP-binding pocket. ...
# [4] = test system: RAD51 L180E-ssDNA (polydT) filaments; test: EMSA, protection of RAD51 L180E-ssDNA (polydT) filaments from BRC4-mediated disruption; assay type: biochemical; conditions: 100-nt polydT
# Experimental: as §2
Substance,interaction by MST (in words) (DMC1 ΔN loop mutant),"stimulation of DMC1-ssDNA filament formation upon changing order of addition (DMC1-ssDNA filaments [1]; Ex14 added after DMC1-ssDNA, with DMC1 prior to ssDNA, or with ssDNA prior to DMC1)","stimulation of DMC1-ssDNA nucleoprotein filament formation (DMC1-ssDNA filaments [1]; 100-nt random ssDNA, 4 °C, canonical ratio of three nucleotides to one protomer, equimolar for Ex14)",super-shift of pre-formed DMC1-ssDNA filaments (DMC1-ssDNA filaments [2]; 5-fold stoichiometric excess (55 μM)),"super-shift of pre-formed DMC1-ssDNA filaments (DMC1-ssDNA filaments [2]; 100-nt random ssDNA, 4 °C)",super-shift of pre-formed DMC1-ssDNA filaments (DMC1-ssDNA filaments [2]; equimolar (11 μM)),super-shift of DMC1 V179E-ssDNA filaments [3],selective binding to DMC1 (DMC1),protection of RAD51 L180E-ssDNA (polydT) filaments from BRC4-mediated disruption [4]
ATRNEKMRHLITTGRPTKVFVPPFKTKSHFHRVE [Ex14],not detectable; also recorded: abolished its ability to bind Ex14,same degree; also recorded: same stimulation; also recorded: order of addition did not affect,"stimulates DMC1-ssDNA nucleoprotein filament assembly, achieving complete DMC1-ssDNA filament formation; also recorded: promoted the formation of DMC1-ssDNA filaments",substantial,inducing a super-shift; also recorded: induced a super-shift,noticeable,The residual super-shift was the same; also recorded: only minimal super-shift,bind selectively to DMC1,–
"Ex27: BRCA2 exon 27 PhePP peptide, amino acids 3270-3315 (ALDFLSRLPLPPPVSPICTFVSPAAQKAFQPPRSCGTKYETPIKKK; UniProt P51587 3270-3315, looked up, fragment)",–,–,–,–,–,–,–,–,not protected; also recorded: almost entirely lost; also recorded: abrogated
